The values that follow are results of earlier work, collected in patent US7857962B2, “Potentiometric electrode, gradient polymer, uses and method of preparation therefor” (Universiteit Antwerpen, priority 2004, dated 2010).

For the series the following is noted: for Log P: organic acid analytes, n-octanol/water; for log P: basic drugs named for comparison.

In the case of `O=C(O)/C=C/C(=O)O` [Fumaric, fumaric acid], the “Log P” value is “+0.49”.

As for `CC(O)C(=O)O` (centres unmarked) [Lactic, lactic acid], the “Log P” value is −1.31. For the molecule `O=C(O)CC(O)C(=O)O` (centres unmarked) [Malic, malic acid], the “Log P” value is −1.22. As to `O=C(O)CCC(=O)O` [Succinic, succinic acid], the “Log P” value is listed as −1.11. Regarding `O=C(O)C(O)C(O)C(=O)O` (centres unmarked) [Tartaric, tartaric acid], the “Log P” value is recorded as −1.39.

For `Nc1c(Br)cc(Br)cc1CN[C@H]1CC[C@H](O)CC1` [ambroxol, reference compound], the “log P” value is listed as 3.24. `CN(Cc1cc(Br)cc(Br)c1N)C1CCCCC1` [bromhexine, reference compound]: the “log P” value is given as 4.03. As to `CC(C)(C)NCC(O)c1cc(Cl)c(N)c(Cl)c1` (centres unmarked) [clenbuterol, reference compound], the “log P” value was 2.91.

The term Log P denotes the decadic logarithm of the partition coefficient of the neutral form, usually between octanol and water. As usually defined, the log P is the decadic logarithm of the partition coefficient of the neutral form, usually between octanol and water.
